Five compounds from PubChem BioAssay AID651592 (Sanford-Burnham Center for Chemical Genomics, 2012) can be followed below.

Assay [1] in a line: inhibitors of NFkB activation in CF airway cells, SAR follow-up, KKLEB cells, panel, IL8 HTRF, NFkB-GFP (AID 651592).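 Note: immortalized cystic fibrosis airway epithelial KKLEB cells with an NF-kB GFP reporter.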 The note with it: PAF/TNFa-induced NFkB-GFP / IL8 HTRF, CF-PAF assay. On the technique in general: Time-resolved FRET reads energy transfer from a long-lived donor to a nearby acceptor.
The subject of assay [2] is IL8. The assay is described as above. To be noted: PAF/TNFa-induced NFkB-GFP / IL8 HTRF, mean of runs, mean IC50 across panel replicates.
Assay [3] addresses Interleukin-8 (Homo sapiens) (UniProt P10145). The description is as above. To be noted: PAF/TNFa-induced NFkB-GFP / IL8 HTRF.
The mark [4] stands for this setting: mean of runs, mean IC50 across panel replicates.

Sequence of Interleukin-8 (Homo sapiens) (P10145 whole entry, looked up): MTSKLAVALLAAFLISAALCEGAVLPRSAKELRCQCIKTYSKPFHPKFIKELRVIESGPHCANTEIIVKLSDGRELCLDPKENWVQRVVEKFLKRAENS

`O=C(Nc1ccc(N2CCN(C(=O)c3ccccc3Cl)CC2)cc1)c1cccc(Br)c1`: the IC50 in assay [1] (setting [4]) is 39.8 µM; in assay [1] (run 1), greater than 66 µM; in assay [1] (run 2), 16.8 µM; in assay [1] (run 3), 24.3 µM; in assay [1] (run 4) it was greater than 66 µM; in assay [1] (run 5), greater than 66 µM. The IC50 in assay [1] (run 6) was greater than 66 µM; in assay [2] (PAF-induced), 55 µM; in assay [2] (TNFa-induced), greater than 66 µM; in assay [3] (IL8, PAF-induced, run 1), greater than 66 µM; in assay [3] (IL8, PAF-induced, run 2) it was greater than 66 µM; in assay [3] (IL8, PAF-induced, run 3), greater than 66 µM. The IC50 in assay [3] (IL8, PAF-induced, run 4) is greater than 66 µM; in assay [3] (IL8, PAF-induced, run 5), greater than 66 µM; in assay [3] (IL8, PAF-induced, run 6), greater than 66 µM; in assay [3] (IL8, TNFa-induced, run 1), greater than 66 µM; in assay [3] (IL8, TNFa-induced, run 2) it was greater than 66 µM; in assay [3] (IL8, TNFa-induced, run 3) it was greater than 66 µM. Moreover, the IC50 was greater than 66 µM in assay [3] (IL8, TNFa-induced, run 4); greater than 66 µM in assay [3] (IL8, TNFa-induced, run 5); greater than 66 µM in assay [3] (IL8, TNFa-induced, run 6).
Turning to `O=C(Nc1ccc(N2CCN(C(=O)c3ccc(F)cc3)CC2)cc1)c1cccc(Br)c1`, the IC50 in assay [1] (setting [4]) was 43.9 µM; in assay [1] (run 1), 21.5 µM; in assay [1] (run 2), 21.6 µM; in assay [1] (run 3) it was 22.5 µM; in assay [1] (run 4), greater than 66 µM; in assay [1] (run 5), greater than 66 µM. For the same compound, the IC50 in assay [1] (run 6) is greater than 66 µM; in assay [2] (PAF-induced) it was greater than 66 µM; in assay [2] (TNFa-induced), greater than 66 µM; in assay [3] (IL8, PAF-induced, run 1), greater than 66 µM; in assay [3] (IL8, PAF-induced, run 2) it was greater than 66 µM; in assay [3] (IL8, PAF-induced, run 3), greater than 66 µM. In addition, the IC50 in assay [3] (IL8, PAF-induced, run 4) is greater than 66 µM; in assay [3] (IL8, PAF-induced, run 5), greater than 66 µM; in assay [3] (IL8, PAF-induced, run 6), greater than 66 µM; in assay [3] (IL8, TNFa-induced, run 1) it was greater than 66 µM; in assay [3] (IL8, TNFa-induced, run 2), greater than 66 µM; in assay [3] (IL8, TNFa-induced, run 3), greater than 66 µM. Also, the IC50 in assay [3] (IL8, TNFa-induced, run 4) is greater than 66 µM; in assay [3] (IL8, TNFa-induced, run 5), greater than 66 µM; in assay [3] (IL8, TNFa-induced, run 6), greater than 66 µM.
Consider `Cc1ccc(NCc2cc3c(C(C)(C)C)nn(-c4ccccc4)c3[nH]c2=O)cc1`, for which the IC50 in assay [1] (setting [4]) was 39.7 µM; in assay [1] (run 1), greater than 66 µM; in assay [1] (run 2), 26 µM; in assay [1] (run 3), 43.2 µM; in assay [1] (run 4), greater than 66 µM; in assay [1] (run 5), 13.4 µM. For the same compound, the IC50 in assay [1] (run 6) was 23.8 µM; in assay [2] (PAF-induced), 4.49 µM; in assay [2] (TNFa-induced) it was greater than 66 µM; in assay [3] (IL8, PAF-induced, run 1), 2.68 µM; in assay [3] (IL8, PAF-induced, run 2) it was 3.24 µM; in assay [3] (IL8, PAF-induced, run 3), 3.47 µM. Also, the IC50 in assay [3] (IL8, PAF-induced, run 4) is 3.84 µM; in assay [3] (IL8, PAF-induced, run 5) it was 5.83 µM; in assay [3] (IL8, PAF-induced, run 6), 7.9 µM; in assay [3] (IL8, TNFa-induced, run 1), greater than 66 µM; in assay [3] (IL8, TNFa-induced, run 2), greater than 66 µM; in assay [3] (IL8, TNFa-induced, run 3), greater than 66 µM. For the same compound, the IC50 in assay [3] (IL8, TNFa-induced, run 4) was greater than 66 µM; in assay [3] (IL8, TNFa-induced, run 5) it was greater than 66 µM; in assay [3] (IL8, TNFa-induced, run 6) it was greater than 66 µM.
With `O=C(Nc1ccc(N2CCN(C(=O)c3ccccc3F)CC2)cc1)c1cccnc1`, the IC50 in assay [1] (setting [4]) was 29 µM; in assay [1] (run 1), 6.4 µM; in assay [1] (run 2), 8.28 µM; in assay [1] (run 3), 8.83 µM; in assay [1] (run 4), greater than 66 µM; in assay [1] (run 5), greater than 66 µM. Moreover, the IC50 in assay [1] (run 6) is 18.3 µM; in assay [2] (PAF-induced), 61.3 µM; in assay [2] (TNFa-induced), greater than 66 µM; in assay [3] (IL8, PAF-induced, run 1) it was greater than 66 µM; in assay [3] (IL8, PAF-induced, run 2) it was greater than 66 µM; in assay [3] (IL8, PAF-induced, run 3), greater than 66 µM. The IC50 is greater than 66 µM in assay [3] (IL8, PAF-induced, run 4); greater than 66 µM in assay [3] (IL8, PAF-induced, run 5); 37.8 µM in assay [3] (IL8, PAF-induced, run 6); greater than 66 µM in assay [3] (IL8, TNFa-induced, run 1); greater than 66 µM in assay [3] (IL8, TNFa-induced, run 2); greater than 66 µM in assay [3] (IL8, TNFa-induced, run 3). Also, the IC50 in assay [3] (IL8, TNFa-induced, run 4) is greater than 66 µM; in assay [3] (IL8, TNFa-induced, run 5) it was greater than 66 µM; in assay [3] (IL8, TNFa-induced, run 6), greater than 66 µM.
In the case of `CCOc1ccc(NCc2cc3c(C)nn(-c4ccccc4)c3[nH]c2=O)cc1`, the IC50 came to 12.6 µM in assay [1] (setting [4]); 13 µM in assay [1] (run 1); 15.9 µM in assay [1] (run 2); 16.2 µM in assay [1] (run 3); 9.13 µM in assay [1] (run 4); 10.5 µM in assay [1] (run 5). Further, the IC50 in assay [1] (run 6) was 11.2 µM; in assay [2] (PAF-induced) it was 10.5 µM; in assay [2] (TNFa-induced) it was greater than 66 µM; in assay [3] (IL8, PAF-induced, run 1) it was 10.3 µM; in assay [3] (IL8, PAF-induced, run 2), 13.9 µM; in assay [3] (IL8, PAF-induced, run 3) it was 14.1 µM. The IC50 was 7.93 µM in assay [3] (IL8, PAF-induced, run 4); 8.32 µM in assay [3] (IL8, PAF-induced, run 5); 8.5 µM in assay [3] (IL8, PAF-induced, run 6); greater than 66 µM in assay [3] (IL8, TNFa-induced, run 1); greater than 66 µM in assay [3] (IL8, TNFa-induced, run 2); greater than 66 µM in assay [3] (IL8, TNFa-induced, run 3). Besides, the IC50 in assay [3] (IL8, TNFa-induced, run 4) is greater than 66 µM; in assay [3] (IL8, TNFa-induced, run 5), greater than 66 µM; in assay [3] (IL8, TNFa-induced, run 6), greater than 66 µM.

A word on the IC50: it is the point on the concentration scale where inhibition reaches its midpoint. High values mean weaker potency in that assay, low ones greater potency in that assay.
